The text below walks through data of PubChem BioAssay (NCI).

Among the test systems are HOP-92 NSCLC; MALME-3M melanoma; NCI-H460 lung; RPMI-8226 leukemia; RXF 393 renal; SK-MEL-28 melanoma; SNB-19 CNS; SNB-75 CNS; T-47D breast; UO-31 renal.
Common to all, as to assay: NCI tumour cell line growth inhibition, 48 h

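Where inhibition never reached the appropriate level, the endpoint shown equals the highest concentration tested. Otherwise, values were interpolated linearly from a five-concentration, 48-hour dose response in 96-well plates. GI50: concentration for 50% inhibition of growth. TGI: total growth inhibition.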

With `O=C(CCc1nnc(-c2c(Cl)cccc2Cl)o1)c1nc2ccccc2[nH]1`, the GI50 in the assay on HOP-92 NSCLC was 1.77 µM; in the assay with MALME-3M melanoma it was 13 µM; with NCI-H460 lung, 4.99 µM; in the assay with RPMI-8226 leukemia it was 3.61 µM; in the assay with RXF 393 renal it was 4.3 µM; in the assay on SK-MEL-28 melanoma it was 12.7 µM. The GI50 is 17.4 µM in the assay on SNB-19 CNS, 18.7 µM with SNB-75 CNS, 3.34 µM with T-47D breast and 6.71 µM in the assay on UO-31 renal. In addition, the TGI came to 15.8 µM in the assay with HOP-92 NSCLC; 52.6 µM in the assay with MALME-3M melanoma; 28.6 µM in the assay with NCI-H460 lung; 23.3 µM in the assay with RPMI-8226 leukemia; 49.7 µM in the assay on RXF 393 renal; 42.7 µM in the assay on SK-MEL-28 melanoma. In addition, the TGI in the assay on SNB-19 CNS was > 100 µM; in the assay on SNB-75 CNS, > 100 µM; in the assay on T-47D breast, 60 µM; with UO-31 renal it was 32.9 µM.

Consider `CCc1ccc(CCC(=O)Nc2ncc(Cc3cc(Cl)ccc3Cl)s2)o1`, for which the GI50 was 2.08 µM in the assay with HOP-92 NSCLC; 1.38 µM with MALME-3M melanoma; 1.88 µM with NCI-H460 lung; 1.21 µM in the assay with RPMI-8226 leukemia; 1.19 µM with RXF 393 renal; 2.75 µM in the assay on SK-MEL-28 melanoma. Further, the GI50 in the assay with SNB-19 CNS was 1.87 µM; in the assay on SNB-75 CNS, 0.412 µM; in the assay with T-47D breast it was 1.86 µM; with UO-31 renal it was 1.86 µM. Besides, the TGI in the assay with HOP-92 NSCLC was > 50 µM; in the assay on MALME-3M melanoma, > 50 µM; with NCI-H460 lung, > 50 µM; in the assay on RPMI-8226 leukemia, 6.92 µM; in the assay with RXF 393 renal it was 6.87 µM; with SK-MEL-28 melanoma, > 50 µM. For the same compound, the TGI was 12.4 µM in the assay with SNB-19 CNS, 2.4 µM in the assay on SNB-75 CNS, > 50 µM with T-47D breast and 22.5 µM in the assay on UO-31 renal.

With `COc1cc(C2c3cc4c(cc3[C@H](NC(=O)c3cccs3)C3COC(=O)[C@H]23)OCO4)cc(OC)c1OC` (stereo not given in full), the TGI is 70.3 µM with HOP-92 NSCLC; > 100 µM in the assay with MALME-3M melanoma; 10.8 µM with NCI-H460 lung; 19.3 µM in the assay with RPMI-8226 leukemia; 0.0543 µM with RXF 393 renal; 83.9 µM with SK-MEL-28 melanoma. Besides, the TGI in the assay with SNB-19 CNS is > 100 µM; with SNB-75 CNS, > 100 µM; with T-47D breast, > 100 µM; with UO-31 renal, > 44.3 µM.

Consider `C=C1C(=O)O[C@H]2[C@H]1CC/C(C=Nc1ccc(C(F)(F)F)cc1N)=C\CC[C@@]1(C)O[C@@H]21`, for which the GI50 in the assay with HOP-92 NSCLC is 15.4 µM; in the assay on MALME-3M melanoma, 11.1 µM; in the assay on NCI-H460 lung it was 7.07 µM; in the assay with RPMI-8226 leukemia, 3.24 µM; with RXF 393 renal it was 2.87 µM; in the assay on SK-MEL-28 melanoma it was 5.85 µM. Besides, the GI50 with SNB-19 CNS is 11.5 µM; with SNB-75 CNS it was 10.9 µM; in the assay with T-47D breast, 3.31 µM; in the assay with UO-31 renal, 2.87 µM. Besides, the TGI came to 29.7 µM with HOP-92 NSCLC; 26.2 µM in the assay with MALME-3M melanoma; 22.7 µM in the assay on NCI-H460 lung; 10.1 µM with RPMI-8226 leukemia; 9.22 µM with RXF 393 renal; 20.2 µM in the assay with SK-MEL-28 melanoma. Besides, the TGI in the assay on SNB-19 CNS amounted to 26.2 µM; in the assay on SNB-75 CNS it was 23.2 µM; in the assay with T-47D breast it was 22.1 µM; in the assay on UO-31 renal it was 19.3 µM.

On to `C=C1C(=O)O[C@H]2[C@H]1CC/C(COC(=O)/C=C\C(=O)NCc1ccc(Cn3c(=O)sn(-c4ccc(OC)cc4)c3=O)cc1)=C\CC[C@@]1(C)O[C@@H]21`, for which the GI50 in the assay on HOP-92 NSCLC is 0.587 µM; in the assay on MALME-3M melanoma, 0.806 µM; in the assay on NCI-H460 lung it was 0.804 µM; in the assay with RPMI-8226 leukemia it was 0.313 µM; with RXF 393 renal it was 0.51 µM; with SK-MEL-28 melanoma it was 0.825 µM. In addition, the GI50 in the assay on SNB-19 CNS was 0.879 µM; in the assay on SNB-75 CNS, 0.407 µM; with T-47D breast it was 0.839 µM; in the assay on UO-31 renal, 0.408 µM. The TGI in the assay on HOP-92 NSCLC came to 1.36 µM; with MALME-3M melanoma, 1.56 µM; in the assay with NCI-H460 lung it was 1.81 µM; in the assay on RPMI-8226 leukemia, 2.43 µM; in the assay with RXF 393 renal, 1.17 µM; in the assay on SK-MEL-28 melanoma it was 1.55 µM. The TGI with SNB-19 CNS came to 1.78 µM; with SNB-75 CNS it was 1.23 µM; with T-47D breast, 2.02 µM; in the assay with UO-31 renal, 1.06 µM.

Turning to `O=C(O)c1cc(N/C=C2\C(=O)c3ccccc3OC2O)ccc1O` (stereo not given), the GI50 is 6.73 µg/mL with HOP-92 NSCLC; 7.59 µg/mL in the assay with MALME-3M melanoma; 34 µg/mL with NCI-H460 lung; 2.24 µg/mL in the assay on RPMI-8226 leukemia; 18.5 µg/mL with RXF 393 renal; 31.8 µg/mL in the assay on SK-MEL-28 melanoma. For the same compound, the GI50 was 19.9 µg/mL with SNB-19 CNS, 25.2 µg/mL in the assay with SNB-75 CNS, 5.34 µg/mL in the assay on T-47D breast and 10.1 µg/mL with UO-31 renal. In addition, the TGI was determined as 125 µg/mL in the assay with HOP-92 NSCLC; 40.8 µg/mL with MALME-3M melanoma; 81.3 µg/mL in the assay on NCI-H460 lung; 7.82 µg/mL with RPMI-8226 leukemia; 40.1 µg/mL with RXF 393 renal; 113 µg/mL with SK-MEL-28 melanoma. The TGI turned out to be 67.5 µg/mL with SNB-19 CNS, 129 µg/mL with SNB-75 CNS, 46.2 µg/mL in the assay with T-47D breast and 46.2 µg/mL in the assay on UO-31 renal.

On to `C[As](C)Sc1ccnc(S[As](C)C)n1`, for which the GI50 is 0.774 µM with HOP-92 NSCLC; 1.66 µM with MALME-3M melanoma; 19.1 µM in the assay with NCI-H460 lung; 1.12 µM in the assay on RPMI-8226 leukemia; 3.2 µM with RXF 393 renal; 2.67 µM in the assay on SK-MEL-28 melanoma. Besides, the GI50 in the assay on SNB-19 CNS is 14.7 µM; with SNB-75 CNS, 12.7 µM; in the assay on T-47D breast it was 22.9 µM; with UO-31 renal, 3.73 µM. For the same compound, the TGI in the assay with HOP-92 NSCLC was 5 µM; in the assay with MALME-3M melanoma, 11.3 µM; in the assay with NCI-H460 lung it was > 58.6 µM; in the assay with RPMI-8226 leukemia it was 4.61 µM; with RXF 393 renal, 20.1 µM; with SK-MEL-28 melanoma, 19.7 µM. The TGI in the assay on SNB-19 CNS is > 56.2 µM; in the assay on SNB-75 CNS, > 100 µM; in the assay with T-47D breast, > 100 µM; with UO-31 renal, 26.9 µM.

In the case of `O=C1Nc2cc(Cl)ccc2Oc2cc(Oc3ccccc3)ccc21`, the GI50 with HOP-92 NSCLC was 1.32 µM; with MALME-3M melanoma, 10.9 µM; with NCI-H460 lung, 2.91 µM; in the assay on RPMI-8226 leukemia, 5.35 µM; with RXF 393 renal it was 2.09 µM; in the assay on SK-MEL-28 melanoma, 5.94 µM. In addition, the GI50 in the assay with SNB-19 CNS is 10.5 µM; in the assay on SNB-75 CNS, 1.49 µM; in the assay on T-47D breast it was 4.79 µM; in the assay with UO-31 renal, 6.52 µM. The TGI with HOP-92 NSCLC was 9.41 µM; with MALME-3M melanoma, 47.4 µM; with NCI-H460 lung, 11.7 µM; in the assay with RPMI-8226 leukemia, > 100 µM; in the assay on RXF 393 renal, 9.87 µM; with SK-MEL-28 melanoma it was 32.8 µM. In addition, the TGI with SNB-19 CNS was 49.2 µM; in the assay on SNB-75 CNS it was 20.1 µM; in the assay on T-47D breast, 36.8 µM; with UO-31 renal, > 100 µM.
